Measured values taken from patent publication US10576102B2, “KOC1-derived peptide and vaccine including same” (ONCOTHERAPY SCIENCE, INC., priority 2014, dated 2020).

Test system: peptide-pulsed C1R-A33
Experiment: In vitro CTL induction, IFN-gamma ELISPOT assay (HLA-A*3303)
Type: cell-based, human
Conditions: CTLs induced with peptide-pulsed DCs from HLA-A*3303-positive volunteers; day 21; vs peptide-pulsed C1R-A33, compared with unpulsed control
In short: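 CD8+ T cells from HLA-A*3303-positive donors were stimulated on days 0, 7 and 14 with irradiated autologous monocyte-derived DCs pulsed with 20 μg/ml peptide, with IL-7 and then IL-2 support. On day 21, IFN-gamma ELISPOT was read against peptide-pulsed C1R cells stably expressing HLA-A*3303 (1×10^4/well).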

In the case of “ILAHNNFVGR (a peptide derived from KOC1) [SEQ ID NO: 52]”, the “peptide-specific CTL activity (IFN-gamma production), ELISPOT” value is reported as “potent IFN-gamma production”.
